Experimental data as given in article PMC4335062, “Data-Driven Prediction and Design of bZIP Coiled-Coil Interactions” (PLoS Computational Biology, 2015).
Where two headings read alike, the source gives them in different places. Where no end group is shown, it is not given here.

How the values were obtained:
Test in all cases: Direct-binding FRET assay
[1] = molecular target: FOS (Homo sapiens, UniProt P01100); design: made in house; details: read-out: Kd
Experimental: (§1) The direct binding assay was performed manually in 384-well plates and is similar to a previously described assay. Wells were filled with 20 μL of 1 mM TCEP-HCl. A 4 μM stock of acceptor protein was made fresh in 1 mM TCEP-HCl, and 20 μL was titrated in 2-fold dilutions over the wells. […] The direct-binding FRET data were fit as previously described. Briefly, the Kd of the designed peptide homodimer was experimentally determined and used with previously determined target homodimer Kd values to determine the heterodimer Kd. The homodimer Kd values used for the human bZIPs were from; experiments done by […] et al. used the same protein constructs for the human bZIP proteins, the same buffer conditions, and the same assay. The fitting used a system of ordinary differential equations to describe the concentrations of homo and heterodimers formed by the donor (D) and acceptor (A) as a function of the heterodimer Kd. MATLAB was used to simulate the binding experiment for different Kd values, and the value that gave the best agreement between simulation and experiment was assigned. A minimum 15% change in the donor fluorescence upon titrating the acceptor peptide from 0 to 1000 nM was required for a fit to be attempted. If this minimum was not met, the interaction was classified as “NS” for no signal change. […] For such curves, we removed the first five points and re-fit the data.

[2] = molecular target: MAFG (Homo sapiens, UniProt O15525); design: made in house; details: read-out: Kd
Experimental: as §1

[3] = molecular target: ATF6B (Homo sapiens, UniProt Q99941); design: made in house; details: read-out: Kd
Experimental: as §1

[4] = molecular target: JUN (Homo sapiens, UniProt P05412); design: made in house; details: mean or single, read-out: Kd
Experimental: as §1

[5] = molecular target: T1, NFIL3 (Homo sapiens, UniProt Q16649); details: read-out: Kd
T1 construct: made in house
T1 sequence (Q16649 73-136 limits assumed): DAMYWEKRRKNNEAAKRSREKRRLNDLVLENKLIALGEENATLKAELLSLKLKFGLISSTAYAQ
Experimental: (§2) The direct binding assay was performed manually in 384-well plates and is similar to a previously described assay. Wells were filled with 20 μL of 1 mM TCEP-HCl. A 4 μM stock of acceptor protein was made fresh in 1 mM TCEP-HCl, and 20 μL was titrated in 2-fold dilutions over the wells. […] The direct-binding FRET data were fit as previously described. Briefly, the Kd of the designed peptide homodimer was experimentally determined and used with previously determined target homodimer Kd values to determine the heterodimer Kd. The homodimer Kd values used for the human bZIPs were from; experiments done by […] et al. used the same protein constructs for the human bZIP proteins, the same buffer conditions, and the same assay. The fitting used a system of ordinary differential equations to describe the concentrations of homo and heterodimers formed by the donor (D) and acceptor (A) as a function of the heterodimer Kd. MATLAB was used to simulate the binding experiment for different Kd values, and the value that gave the best agreement between simulation and experiment was assigned. A minimum 15% change in the donor fluorescence upon titrating the acceptor peptide from 0 to 1000 nM was required for a fit to be attempted. If this minimum was not met, the interaction was classified as “NS” for no signal change. […] These interactions were marked “AS” to indicate anomalous signal. We attributed this to interactions between the peptides, the dyes and the walls of the assay plates at low concentrations. These curves could not be fit, given their unusual shapes at low concentrations of acceptor. For such curves, we removed the first five points and re-fit the data. […] One example of this is increasing concentrations of acceptor causing an increase in donor fluorescence.

[6] = molecular target: T2, NFE2L2 (Homo sapiens, UniProt Q16236); details: read-out: Kd
T2 construct: made in house
T2 sequence (Q16236 497-560 limits assumed): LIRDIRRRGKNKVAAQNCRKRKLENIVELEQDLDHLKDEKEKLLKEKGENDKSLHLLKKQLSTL
Experimental: as §2

[7] = molecular target: T3, CREB3 (Homo sapiens, UniProt O43889); details: mean or single, read-out: Kd
T3 construct: made in house
T3 sequence (O43889 150-213 limits assumed): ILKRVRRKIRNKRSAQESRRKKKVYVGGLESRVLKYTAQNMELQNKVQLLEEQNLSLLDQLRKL
Experimental: as §2

[8] = molecular target: T4, DBP (Homo sapiens, UniProt Q10586); details: read-out: Kd
T4 construct: made in house
T4 sequence (Q10586 255-318 limits assumed): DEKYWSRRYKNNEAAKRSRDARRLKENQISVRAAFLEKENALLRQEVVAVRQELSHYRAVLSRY
Experimental: as §2

[9] = molecular target: T5, JUNB (Homo sapiens, UniProt P17275); details: mean or single, read-out: Kd
T5 construct: made in house
T5 sequence (P17275 268-331 limits assumed): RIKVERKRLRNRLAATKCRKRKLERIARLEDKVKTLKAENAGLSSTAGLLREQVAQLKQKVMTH
Experimental: as §2

[10] = 4°C, C-terminal fluorescein design as donor, TAMRA target titrated
[11] = 4°C, C-terminal rhodamine design, mean or single
[12] = 4°C, N-terminal rhodamine design, mean or single
[13] = 23°C, C-terminal fluorescein design as donor, TAMRA target titrated
[14] = 23°C, C-terminal rhodamine design, mean or single
[15] = 23°C, N-terminal rhodamine design, mean or single
[16] = 37°C, C-terminal fluorescein design as donor, TAMRA target titrated
[17] = 37°C, C-terminal rhodamine design, mean or single
[18] = 37°C, N-terminal rhodamine design, mean or single
[19] = 4°C, C-terminal rhodamine design
[20] = 4°C, N-terminal rhodamine design
[21] = 23°C, C-terminal rhodamine design
[22] = 23°C, N-terminal rhodamine design
[23] = 37°C, C-terminal rhodamine design
[24] = 37°C, N-terminal rhodamine design

Measured: Kd

Sequence of FOS (P01100 137-200 limits assumed): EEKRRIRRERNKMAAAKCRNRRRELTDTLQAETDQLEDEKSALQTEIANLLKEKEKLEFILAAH
Sequence of ATF6B (Q99941 325-388 limits assumed): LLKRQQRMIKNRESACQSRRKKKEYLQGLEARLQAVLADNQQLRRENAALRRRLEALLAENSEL
Sequence of MAFG (O15525 51-114 limits assumed): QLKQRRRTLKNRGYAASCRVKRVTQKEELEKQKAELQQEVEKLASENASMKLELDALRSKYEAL
Sequence of JUN (P05412 252-315 limits assumed): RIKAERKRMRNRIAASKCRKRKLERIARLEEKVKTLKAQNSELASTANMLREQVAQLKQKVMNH

EREAQLENRVAHLKEKNQELKAQNLHLKEALSEAQNRNQELKNDA [XBP1-d1]
200 to 1000 nM: [3]; 4°C, C-terminal rhodamine design, repeat 1
> 1000 nM: [1]; [10] | [1]; [11] | [1]; [12] | [1]; [13] | [1]; [14] | [1]; [15] | [1]; [16] | [1]; [17] | [1]; [18] | [2]; [10] | [2]; [11] | [2]; [12] | [2]; [13] | [2]; [14] | [2]; [15] | [2]; [16] | [2]; [17] | [2]; [18] | [3]; [10] | [3]; 4°C, C-terminal rhodamine design, repeat 2 | [3]; [13] | [3]; [15] | [3]; [16] | [3]; [17] | [3]; 37°C, C-terminal rhodamine design, repeat 1 | [3]; 37°C, C-terminal rhodamine design, repeat 2 | [3]; [18] | [4]; [19] | [4]; [20] | [4]; [21] | [4]; [22] | [4]; [23] | [4]; [24] | [5]; [10] | [5]; [11] | [5]; [12] | [5]; [13] | [5]; [14] | [5]; [15] | [5]; [16] | [5]; [17] | [5]; [18] | [6]; [10] | [6]; [11] | [6]; [12] | [6]; [13] | [6]; [14] | [6]; [15] | [6]; [16] | [6]; [17] | [6]; [18] | [7]; [19] | [7]; [20] | [7]; [21] | [7]; [22] | [7]; [23] | [7]; [24] | [8]; [10] | [8]; [11] | [8]; [12] | [8]; [13] | [8]; [14] | [8]; [15] | [8]; [16] | [8]; [17] | [8]; [18] | [9]; [19] | [9]; [20] | [9]; [21] | [9]; [22] | [9]; [23] | [9]; [24]
